# System: pediatric subjects with acute hypoxemic respiratory failure (AHRF)
# Assay: Pediatric AHRF study: respiratory values (oxygen status, HFOV, CMV, ABG)
# Type: in vivo, human
# Settings: 5 ppm
# Method: Standardized ventilatory management and weaning procedures were used. Ventilatory management was used based on an “open lung approach” using positive end-expiratory pressure (PEEP) to increase lung volume and limiting tidal volumes to reduce plateau pressures. Subjects received nitric oxide for inhalation at 5 ppm or placebo (100% Grade 5 nitrogen gas) into the inspiratory limb of the ventilator circuit using a blinded version of the INOvent® delivery system. The subjects were treated until Day 28 or extubation, whichever occurred first. Subjects were assessed daily using a spontaneous breathing trial, according to the institution's standard of care. Arterial blood gases (ABG), ventilator settings, methemoglobin, oxygenation index, systolic blood pressure, diastolic blood pressure, Pediatric Risk of Mortality (PRISM) III score, and subject positioning (prone or supine) were performed/recorded at specified times during the study. Selected centers also performed plasma cytokine assays, bronchoalveolar lavage fluid (BALF) assays, and a 6-month follow-up assessment.
# The following assessments were made at baseline: arterial blood gases, ventilator settings, methemoglobin, prone position, PRISM III score, oxygenation index, systolic and diastolic blood pressure, bronchoalveolar lavage fluid assay and plasma cytokine.
# The following assessments were made at 4 hours±1 hour after the start of therapy: arterial blood gases, ventilator settings and methemoglobin.
# The following assessments were made at 12 hours±2 hours after the start of therapy: arterial blood gases and ventilator settings.
# The following assessments were made at 24 hours±2 hours after the start of therapy: arterial blood gases, ventilator settings, methemoglobin, systolic and diastolic blood pressure and plasma cytokine.
# Oxygen status was determined at screening only. Respiratory values in the HFOV category were obtained at baseline, 4 hours, 12 hours, and 24 hours. Respiratory values in the categories conventional mechanical ventilation [CMV] and ABG were obtained at baseline, 4 hours, 12 hours, 24 hours, and at extubation.
structure (smiles),measurement,setting,value
"[N]=O [Nitric Oxide, nitric oxide]","ABG BE, Mean (SD)",4 Hours,0.7 (4.1) mEq/L
same,"ABG BE, Median",4 Hours,1.0 mEq/L
same,"ABG HCO3, Mean (SD)",4 Hours,25.7 (3.9) mEq/L
same,"ABG HCO3, Median",4 Hours,25.8 mEq/L
same,"ABG PaCO2, Mean (SD)",4 Hours,46.0 (18.2) mmHg
same,"ABG PaCO2, Median",4 Hours,43.0 mmHg
same,"ABG PaO2, Mean (SD)",4 Hours,83.2 (22.6) mmHg
same,"ABG PaO2, Median",4 Hours,78.5 mmHg
same,"ABG SaO2, Mean (SD)",4 Hours,95.7 (2.9) %
same,"ABG SaO2, Median",4 Hours,95.9%
same,"ABG pH, Mean (SD)",4 Hours,7.4 (0.1)
same,"ABG pH, Median",4 Hours,7.4
same,"ABG BE, Mean (SD)",12 Hours,1.1 (4.1) mEq/L
same,"ABG BE, Median",12 Hours,2.0 mEq/L
same,"ABG HCO2, Mean (SD)",12 Hours,26.7 (4.1) mEq/L
same,"ABG HCO2, Median",12 Hours,27.0 mEq/L
same,"ABG PaCO2, Mean (SD)",12 Hours,47.4 (8.3) mmHg
same,"ABG PaCO2, Median",12 Hours,48.4 mmHg
same,"ABG PaO2, Mean (SD)",12 Hours,68.7 (20.9) mmHg
same,"ABG PaO2, Median",12 Hours,68.0 mmHg
same,"ABG SaO2, Mean (SD)",12 Hours,93.1 (3.2) %
same,"ABG SaO2, Median",12 Hours,94.0%
same,"ABG pH, Mean (SD)",12 Hours,7.4 (0.1)
same,"ABG pH, Median",12 Hours,7.4
same,"ABG BE, Mean (SD)",24 Hours,2.3 (3.8) mEq/L
same,"ABG BE, Median",24 Hours,2.8 mEq/L
same,"ABG HCO3, Mean (SD)",24 Hours,30.6 (14.1) mEq/L
same,"ABG HCO3, Median",24 Hours,28.0 mEq/L
same,"ABG PaCO2, Mean (SD)",24 Hours,47.2 (11.5) mmHg
same,"ABG PaCO2, Median",24 Hours,45.4 mmHg
same,"ABG PaO2, Mean (SD)",24 Hours,71.4 (16.8) mmHg
same,"ABG PaO2, Median",24 Hours,69.0 mmHg
same,"ABG SaO2, Mean (SD)",24 Hours,92.2 (5.4) %
same,"ABG SaO2, Median",24 Hours,93.0%
same,"ABG pH, Mean (SD)",24 Hours,7.4 (0.1)
same,"ABG pH, Median",24 Hours,7.4
same,"ABG BE, Mean (SD)",Baseline,0.2 (5.3) mEq/L
same,"ABG BE, Median",Baseline,0.4 mEq/L
same,"ABG HCO3, Mean (SD)",Baseline,25.6 (5.0) mEq/L
same,"ABG HCO3, Median",Baseline,26.0 mEq/L
same,"ABG PaCO2, Mean (SD)",Baseline,45.3 (11.1) mmHg
same,"ABG PaCO2, Median",Baseline,46.5 mmHg
same,"ABG PaO2, Mean (SD)",Baseline,67.5 (13.1) mmHg
same,"ABG PaO2, Median",Baseline,63.0 mmHg
same,"ABG SaO2, Mean (SD)",Baseline,92.8 (3.5) %
same,"ABG SaO2, Median",Baseline,92.0%
same,"ABG pH, Mean (SD)",Baseline,7.4 (0.1)
same,"ABG pH, Median",Baseline,7.4
same,"ABG BE, Mean (SD)",Extubation Criteria,5.0 (2.6) mEq/L
same,"ABG BE, Median",Extubation Criteria,4.0 mEq/L
same,"ABG HCO3, Mean (SD)",Extubation Criteria,30.2 (2.8) mEq/L
same,"ABG HCO3, Median",Extubation Criteria,31.0 mEq/L
same,"ABG PaCO2, Mean (SD)",Extubation Criteria,47.5 (8.4) mmHg
same,"ABG PaCO2, Median",Extubation Criteria,44.0 mmHg
same,"ABG PaO2, Mean (SD)",Extubation Criteria,91.8 (42.3) mmHg
same,"ABG PaO2, Median",Extubation Criteria,78.0 mmHg
same,"ABG SaO2, Mean (SD)",Extubation Criteria,94.6 (5.9) %
same,"ABG SaO2, Median",Extubation Criteria,96.0%
same,"ABG pH, Mean (SD)",Extubation Criteria,7.4 (0.1)
same,"ABG pH, Median",Extubation Criteria,7.4
same,"Oxygen Status Oxygen Index 1, Mean (SD)",Screening,22.2 (8.2)
same,"Oxygen Status Oxygen Index 1, Median",Screening,21.3
same,"Oxygen Status Oxygen Index 2, Mean (SD)",Screening,22.7 (7.9)
same,"Oxygen Status Oxygen Index 2, Median",Screening,23.0

# From patent publication US10201564B2, “Methods of using inhaled nitric oxide gas for treatment of acute respiratory distress syndrome in children” (Mallinckrodt Hospital Products IP Limited, priority 2014, dated 2019)
